Target: T1, aurora-A (human) (Homo sapiens, UniProt O14965)
T1 construct: purchased Upstate, Dundee, UK
T1 sequence (O14965 1-403): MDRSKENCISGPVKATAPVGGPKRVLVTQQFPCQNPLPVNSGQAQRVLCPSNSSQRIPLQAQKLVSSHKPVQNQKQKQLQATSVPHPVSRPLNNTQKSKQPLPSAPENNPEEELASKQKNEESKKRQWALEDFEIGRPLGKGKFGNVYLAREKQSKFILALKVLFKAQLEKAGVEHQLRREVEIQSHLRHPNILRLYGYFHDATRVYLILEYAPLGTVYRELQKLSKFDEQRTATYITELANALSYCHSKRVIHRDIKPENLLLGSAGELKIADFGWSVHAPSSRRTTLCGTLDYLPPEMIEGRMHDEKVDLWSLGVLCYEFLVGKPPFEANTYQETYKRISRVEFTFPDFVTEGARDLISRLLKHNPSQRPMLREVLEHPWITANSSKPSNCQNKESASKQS
Assay: Aurora-A (human) kinase assay
Assay type: biochemical
Settings: read-out: Activity (Aurora A activity, IC50 grading)
Protocol: This was achieved by measurement of incorporation of radioactive phosphate from ATP into Kemptide substrate (LRRASLG), upon phosphorylation by commercially obtained aurora-A (human, Upstate; Dundee, UK). Assays were performed using 96-well plates and appropriate assay buffers (20 mM Tris, 25 mM β-glycerophosphate, 5 mM EGTA, 1 mM DTT, 1 mM sodium vanadate, pH 7.5), into which were added 2-5 ng of active enzyme with 500 μM substrate (Kemptide). The reactions were initiated by addition of MATP mix (15 mM MgCl2+100 μM ATP with 15-25 kBq per well of [γ-^32P]-ATP) and mixtures incubated for 30 min at 30° C. Reactions were stopped by addition of an equal volume of 75 mM aq orthophosphoric acid, followed by filtration through p81 filterplates (Whatman Polyfiltronics, Kent, UK). After washing 4 times with 75 mM aq orthophosphoric acid, plates were dried, scintillant added and incorporated radioactivity measured in a scintillation counter (TopCount, Packard Instruments, Pangbourne, Berks, UK). Compounds for kinase assay were made up as 10 mM stocks in DMSO and diluted into 10% DMSO in assay buffer. Data was analysed using curve-fitting software (XLfit version 4.0.2, IDBS, Guildford, Surrey, UK) to determine IC50 values (concentration of test compound which inhibits kinase activity by 50%).

| Structure (SMILES) | IC50 [nM] |
| --- | --- |
| Cc1c(-c2ccnc(Nc3ccc(OC(F)(F)F)cc3)n2)c(C)n2c1C(=O)NCC2 [Example I-61, 6,8-Dimethyl-7-[2-(4-trifluoromethoxy-phenylamino)pyrimidin-4-yl]-3,4-dihydro-2H-pyrrolo[1,2-a]pyrazin-1-one] | < 1000 |
| CC(=O)Nc1cccc(Nc2nccc(-c3c(C)c4n(c3C)CCNC4=O)n2)c1 [Example I-59, N-{3-[4-(6,8-Dimethyl-1-oxo-1,2,3,4-tetrahydro-pyrrolo[1,2-a]pyrazin-7-yl)-pyrimidin-2-ylamino]-phenyl}-acetamide] | < 100 |
| Cc1c(-c2ccnc(Nc3ccc4c(c3)OCCCO4)n2)c(C)n2c1C(=O)NCC2 [Example I-62, 7-[2-(3,4-Dihydro-2H-benzo[b][1,4]dioxepin-7-ylamino)-pyrimidin-4-yl]-6,8-dimethyl-3,4-dihydro-2H-pyrrolo[1,2-a]pyrazin-1-one] | < 100 |
| Cc1c(-c2ccnc(Nc3ccc(N4CCSCC4)cc3)n2)c(C)n2c1C(=O)NCC2 [Example I-37, 6,8-Dimethyl-7-[2-(4-thiomorpholin-4-yl-phenylamino)-pyrimidin-4-yl]-3,4-dihydro-2H-pyrrolo[1,2-a]pyrazin-1-one] | < 1000 |
| Cc1c(-c2ccnc(Nc3ccc(CC(=O)N(C)CCN(C)C)cc3)n2)c(C)n2c1C(=O)NCC2 [Example I-97, N-(2-Dimethylamino-ethyl)-2-{4-[4-(6,8-dimethyl-1-oxo-1,2,3,4-tetrahydro-pyrrolo[1,2-a]pyrazin-7-yl)-pyrimidin-2-ylamino]-phenyl}-N-methyl-acetamide] | < 1000 |
| Cc1c(-c2ccnc(Nc3ccc(NS(C)(=O)=O)cc3)n2)c(C)n2c1C(=O)NCC2 [Example I-20, N-{4-[4-(6,8-Dimethyl-1-oxo-1,2,3,4-tetrahydro-pyrrolo[1,2-a]pyrazin-7-yl)-pyrimidin-2-ylamino]-phenyl}-methanesulfonamide] | < 1000 |
| Cc1ccc(Nc2nccc(-c3c(C)c4n(c3C)CCNC4=O)n2)cc1 [Example I-39, 6,8-Dimethyl-7-(2-p-tolylamino-pyrimidin-4-yl)-3,4-dihydro-2H-pyrrolo[1,2-a]pyrazin-1-one] | < 1000 |
| Cc1c(-c2ccnc(Nc3ccc4c(c3)CS(=O)(=O)C4)n2)c(C)n2c1C(=O)NCC2 [Example I-63, 7-[2-(2,2-Dioxo-2,3-dihydro-1H-2-benzo[c]thiophen-5-ylamino)-pyrimidin-4-yl]-6,8-dimethyl-3,4-dihydro-2H-pyrrolo[1,2-a]pyrazin-1-one] | < 100 |
| Cc1c(-c2ccnc(Nc3ccc(-c4cnco4)cc3)n2)c(C)n2c1C(=O)NCC2 [Example I-52, 6,8-Dimethyl-7-[2-(4-oxazol-5-yl-phenylamino)-pyrimidin-4-yl]-3,4-dihydro-2H-pyrrolo[1,2-a]pyrazin-1-one] | < 1000 |
| Cc1c(-c2ccnc(Nc3ccc(S(C)(=O)=O)cc3)n2)c(C)n2c1C(=O)NCC2 [Example I-33, 7-[2-(4-Methanesulfonyl-phenylamino)-pyrimidin-4-yl]-6,8-dimethyl-3,4-dihydro-2H-pyrrolo[1,2-a]pyrazin-1-one] | < 100 |
| COc1ccc(Nc2nccc(-c3c(C)c4n(c3C)CCNC4=O)n2)cn1 [Example I-13b, 7-[2-(6-Methoxy-pyridin-3-ylamino)-pyrimidin-4-yl]-6,8-dimethyl-3,4-dihydro-2H-pyrrolo[1,2-a]pyrazin-1-one] | < 1000 |
| Cc1c(-c2ccnc(Nc3cccc(S(C)(=O)=O)c3)n2)c(C)n2c1C(=O)NCC2 [Example I-32, 7-[2-(3-Methanesulfonyl-phenylamino)-pyrimidin-4-yl]-6,8-dimethyl-3,4-dihydro-2H-pyrrolo[1,2-a]pyrazin-1-one] | < 100 |
| Cc1c(-c2ccnc(Nc3ccc(F)c(Cl)c3)n2)c(C)n2c1C(=O)NCC2 [Example I-64, 7-[2-(3-Chloro-4-fluoro-phenylamino)-pyrimidin-4-yl]-6,8-dimethyl-3,4-dihydro-2H-pyrrolo[1,2-a]pyrazin-1-one] | < 1000 |
| Cc1c(-c2ccnc(Nc3cccc([N+](=O)[O-])c3)n2)c(C)n2c1C(=O)NCC2 [Example I-5, 6,8-Dimethyl-7-[2-(3-nitro-phenylamino)-pyrimidin-4-yl]-3,4-dihydro-2H-pyrrolo[1,2-a]pyrazin-1-one] | < 1000 |
| Cc1c(-c2ccnc(Nc3ccc(-c4csnn4)cc3)n2)c(C)n2c1C(=O)NCC2 [Example I-60, 6,8-Dimethyl-7-[2-(4-[1,2,3]thiadiazol-4-yl-phenylamino)-pyrimidin-4-yl]-3,4-dihydro-2H-pyrrolo[1,2-a]pyrazin-1-one] | < 100 |
| Cc1c(-c2ccnc(Nc3ccc(O)cc3)n2)c(C)n2c1C(=O)NCC2 [Example I-17, 7-[2-(4-Hydroxy-phenylamino)-pyrimidin-4-yl]-6,8-dimethyl-3,4-dihydro-2H-pyrrolo[1,2-a]pyrazin-1-one] | < 1000 |
| COCCNS(=O)(=O)c1ccc(Nc2nccc(-c3c(C)c4n(c3C)CCNC4=O)n2)cc1 [Example I-38, 4-[4-(6,8-Dimethyl-1-oxo-1,2,3,4-tetrahydro-pyrrolo[1,2-a]pyrazin-7-yl)-pyrimidin-2-ylamino]-N-(2-methoxy-ethyl)-benzenesulfonamide] | < 1000 |

Further lines, results first:

| IC50 [nM] | Structure (SMILES) |
| --- | --- |
| < 10000 | Cc1c(-c2ccnc(Nc3ccc(F)cc3F)n2)c(C)n2c1C(=O)NCC2 [Example I-66, 7-[2-(2,4-Difluoro-phenylamino)-pyrimidin-4-yl]-6,8-dimethyl-3,4-dihydro-2H-pyrrolo[1,2-a]pyrazin-1-one] |
| < 100 | CNC(=O)Cc1ccc(Nc2nccc(-c3c(C)c4n(c3C)CCNC4=O)n2)cc1 [Example I-103, 2-{4-[4-(6,8-Dimethyl-1-oxo-1,2,3,4-tetrahydro-pyrrolo[1,2-a]pyrazin-7-yl)-pyrimidin-2-ylamino]-phenyl}-N-methyl-acetamide] |
| < 100 | Cc1c(-c2ccnc(Nc3ccc(-c4ccno4)cc3)n2)c(C)n2c1C(=O)NCC2 [Example I-82, 7-[2-(4-Isoxazol-5-yl-phenylamino)-pyrimidin-4-yl]-6,8-dimethyl-3,4-dihydro-2H-pyrrolo[1,2-a]pyrazin-1-one] |
| < 1000 | CNc1ccc(Nc2nccc(-c3c(C)c4n(c3C)CCNC4=O)n2)cc1OC [Example I-76, 7-[2-(3-Methoxy-4-methylamino-phenylamino)-pyrimidin-4-yl]-6,8-dimethyl-3,4-dihydro-2H-pyrrolo[1,2-a]pyrazin-1-one] |
| < 100 | Cc1c(-c2ccnc(Nc3cccc(CCC(N)=O)c3)n2)c(C)n2c1C(=O)NCC2 [Example I-111, 3-{3-[4-(6,8-Dimethyl-1-oxo-1,2,3,4-tetrahydro-pyrrolo[1,2-a]pyrazin-7-yl)-pyrimidin-2-ylamino]-phenyl}-propionamide] |
| < 1000 | Cc1c(-c2ccnc(Nc3ccc(-c4csc(CC(N)=O)n4)cc3)n2)c(C)n2c1C(=O)NCC2 [Example I-83, 2-(4-{4-[4-(6,8-Dimethyl-1-oxo-1,2,3,4-tetrahydro-pyrrolo[1,2-a]pyrazin-7-yl)-pyrimidin-2-ylamino]-phenyl}-thiazol-2-yl)-acetamide] |
| < 100 | Cc1c(-c2ccnc(Nc3cccc(CCC(=O)N(C)C)c3)n2)c(C)n2c1C(=O)NCC2 [Example I-113, 3-{3-[4-(6,8-Dimethyl-1-oxo-1,2,3,4-tetrahydro-pyrrolo[1,2-a]pyrazin-7-yl)-pyrimidin-2-ylamino]-phenyl}-N,N-dimethyl-propionamide] |
| < 1000 | Cc1c(-c2ccnc(Nc3ccc(CC(=O)N4CCOCC4)cc3)n2)c(C)n2c1C(=O)NCC2 [Example I-99, 6,8-Dimethyl-7-{2-[4-(2-morpholin-4-yl-2-oxo-ethyl)-phenylamino]-pyrimidin-4-yl}-3,4-dihydro-2H-pyrrolo[1,2-a]pyrazin-1-one] |
| < 100 | Cc1c(-c2ccnc(Nc3ccc(-c4cn5c(n4)SCC5)cc3)n2)c(C)n2c1C(=O)NCC2 [Example I-75, 7-{2-[4-(2,3-Dihydro-imidazo[2,1-b]thiazol-6-yl)-phenylamino]-pyrimidin-4-yl}-6,8-dimethyl-3,4-dihydro-2H-pyrrolo[1,2-a]pyrazin-1-one] |
| < 1000 | Cc1nc(-c2ccc(Nc3nccc(-c4c(C)c5n(c4C)CCNC5=O)n3)cc2)cs1 [Example I-71, 6,8-Dimethyl-7-{2-[4-(2-methyl-thiazol-4-yl)-phenylamino]-pyrimidin-4-yl}-3,4-dihydro-2H-pyrrolo[1,2-a]pyrazin-1-one] |
| < 1000 | Cc1c(-c2ccnc(Nc3ccc(CC(=O)N(C)C)cc3)n2)c(C)n2c1C(=O)NCC2 [Example I-104, 2-{4-[4-(6,8-Dimethyl-1-oxo-1,2,3,4-tetrahydro-pyrrolo[1,2-a]pyrazin-7-yl)-pyrimidin-2-ylamino]-phenyl}-N,N-dimethyl-acetamide] |
